# Assay results: PubChem BioAssay AID1963979 (Molecular Pharmacology Branch, DTP, NCI, 2024)
# pIC50: −log10 of the molar value.
# System: 361931-004-R-J1-PDC multicell spheroid viability
# Test: Anticancer human tumor 361931-004-R-J1-PDC patient-derived colon adenocarcinoma cell line growth inhibition [PI3K]
# Conditions: for pIC50: curve of first compound; for viability, T/C: stronger effect = lower value
# In short: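 Targeted small molecules plus PI3K inhibitors, half-log dose series from Cmax (default top 10 microM), were applied to heterotypic spheroids of cancer cells with HUVEC and MSCs. Viability indicated growth inhibition.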
# [1] = second compound 0.00316 µM, first compound 0.0316 µM
# [2] = second compound 0.00316 µM, first compound 0.1 µM
# [3] = second compound 0.00316 µM, first compound 0.316 µM
# [4] = second compound 0.00316 µM, first compound 1 µM
# [5] = second compound 0.00316 µM, first compound 3.16 µM
# [6] = second compound 0.00316 µM, first compound 10 µM
# [7] = second compound 0.01 µM, first compound 0.0316 µM
# [8] = second compound 0.01 µM, first compound 0.1 µM
# [9] = second compound 0.01 µM, first compound 0.316 µM
# [10] = second compound 0.01 µM, first compound 1 µM
# [11] = second compound 0.01 µM, first compound 3.16 µM
# [12] = second compound 0.01 µM, first compound 10 µM
# [13] = second compound 0.0316 µM, first compound 0.0316 µM
# [14] = second compound 0.0316 µM, first compound 0.1 µM
# [15] = second compound 0.0316 µM, first compound 0.316 µM
# [16] = second compound 0.0316 µM, first compound 1 µM
# [17] = second compound 0.0316 µM, first compound 3.16 µM
# [18] = second compound 0.0316 µM, first compound 10 µM
# [19] = second compound 0.1 µM, first compound 0.0316 µM
# [20] = second compound 0.1 µM, first compound 0.1 µM
# [21] = second compound 0.1 µM, first compound 0.316 µM
# [22] = second compound 0.1 µM, first compound 1 µM
# [23] = second compound 0.1 µM, first compound 3.16 µM
# [24] = second compound 0.1 µM, first compound 10 µM
# [25] = second compound 0.316 µM, first compound 0.0316 µM
# [26] = second compound 0.316 µM, first compound 0.1 µM
# [27] = second compound 0.316 µM, first compound 0.316 µM
# [28] = second compound 0.316 µM, first compound 1 µM
# [29] = second compound 0.316 µM, first compound 3.16 µM
# [30] = second compound 0.316 µM, first compound 10 µM
# [31] = second compound 1 µM, first compound 0.0316 µM
# [32] = second compound 1 µM, first compound 0.1 µM
# [33] = second compound 1 µM, first compound 0.316 µM
# [34] = second compound 1 µM, first compound 1 µM
# [35] = second compound 1 µM, first compound 3.16 µM
# [36] = second compound 1 µM, first compound 10 µM
# 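Note: spheroids exposed to agents for seven days before readout.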
compound,measurement,setting,value
C#Cc1c(F)ccc2cc(O)cc(-c3ncc4c(N5CC6CCC(C5)N6)nc(OCC56CCCN5CC(F)C6)nc4c3F)c12 (stereo not given) + CC(Nc1ccc2c(c1)OCCn1cc(N3C(=O)OCC3C(F)F)nc1-2)C(N)=O,pIC50,second compound 0.00316 µM,< 5.00
same,pIC50,second compound 0.01 µM,< 5.00
same,pIC50,second compound 0.0316 µM,< 5.00
same,pIC50,second compound 0.1 µM,< 5.00
same,pIC50,second compound 0.316 µM,< 5.00
same,pIC50,second compound 1 µM,5.75
same,"viability, T/C",[1],99.7%
same,"viability, T/C",[2],108%
same,"viability, T/C",[3],93.5%
same,"viability, T/C",[4],100%
same,"viability, T/C",[5],89.6%
same,"viability, T/C",[6],62.3%
same,"viability, T/C",[7],101%
same,"viability, T/C",[8],104%
same,"viability, T/C",[9],81%
same,"viability, T/C",[10],92.1%
same,"viability, T/C",[11],75.3%
same,"viability, T/C",[12],71.3%
same,"viability, T/C",[13],101%
same,"viability, T/C",[14],100%
same,"viability, T/C",[15],106%
same,"viability, T/C",[16],81.3%
same,"viability, T/C",[17],84.3%
same,"viability, T/C",[18],55.9%
same,"viability, T/C",[19],93.8%
same,"viability, T/C",[20],94.2%
same,"viability, T/C",[21],76%
same,"viability, T/C",[22],75%
same,"viability, T/C",[23],68.5%
same,"viability, T/C",[24],53.4%
same,"viability, T/C",[25],86.6%
same,"viability, T/C",[26],86%
same,"viability, T/C",[27],68.2%
same,"viability, T/C",[28],55.2%
same,"viability, T/C",[29],57.1%
same,"viability, T/C",[30],50%
same,"viability, T/C",[31],78.7%
same,"viability, T/C",[32],71.2%
same,"viability, T/C",[33],64.6%
same,"viability, T/C",[34],53.4%
same,"viability, T/C",[35],46.2%
same,"viability, T/C",[36],35.1%
C=CC(=O)N1CCN(c2nc(=O)n(-c3c(C)ccnc3C(C)C)c3nc(-c4c(O)cccc4F)c(F)cc23)C(C)C1 (stereo not given) + CC(Nc1ccc2c(c1)OCCn1cc(N3C(=O)OCC3C(F)F)nc1-2)C(N)=O,pIC50,second compound 0.00316 µM,< 5.00
same,pIC50,second compound 0.01 µM,< 5.00
same,pIC50,second compound 0.0316 µM,< 5.00
same,pIC50,second compound 0.1 µM,< 5.00
same,pIC50,second compound 0.316 µM,< 5.00
same,pIC50,second compound 1 µM,< 5.00
same,"viability, T/C",[1],99.7%
same,"viability, T/C",[2],103%
same,"viability, T/C",[3],101%
same,"viability, T/C",[4],92.7%
same,"viability, T/C",[5],99.8%
same,"viability, T/C",[6],81.2%
same,"viability, T/C",[7],107%
same,"viability, T/C",[8],100%
same,"viability, T/C",[9],99.5%
same,"viability, T/C",[10],99.5%
same,"viability, T/C",[11],106%
same,"viability, T/C",[12],89.8%
same,"viability, T/C",[13],104%
same,"viability, T/C",[14],103%
same,"viability, T/C",[15],99.2%
same,"viability, T/C",[16],97.5%
same,"viability, T/C",[17],97%
same,"viability, T/C",[18],76.2%
same,"viability, T/C",[19],97.4%
same,"viability, T/C",[20],91.6%
same,"viability, T/C",[21],96.9%
same,"viability, T/C",[22],101%
same,"viability, T/C",[23],93.5%
same,"viability, T/C",[24],72.2%
same,"viability, T/C",[25],88.7%
same,"viability, T/C",[26],84.7%
same,"viability, T/C",[27],81.6%
same,"viability, T/C",[28],89.4%
same,"viability, T/C",[29],86%
same,"viability, T/C",[30],66%
same,"viability, T/C",[31],75.5%
same,"viability, T/C",[32],78.2%
same,"viability, T/C",[33],80%
same,"viability, T/C",[34],80.1%
same,"viability, T/C",[35],86.7%
same,"viability, T/C",[36],59.4%
CC(Cn1ccc(-c2ccc(C#N)c(Cl)c2)n1)NC(=O)c1cc(C(C)O)[nH]n1 (stereo not given) + CC(Nc1ccc2c(c1)OCCn1cc(N3C(=O)OCC3C(F)F)nc1-2)C(N)=O,pIC50,second compound 0.00316 µM,< 5.00
same,pIC50,second compound 0.01 µM,< 5.00
same,pIC50,second compound 0.0316 µM,< 5.00
same,pIC50,second compound 0.1 µM,< 5.00
same,pIC50,second compound 0.316 µM,< 5.00
same,pIC50,second compound 1 µM,< 5.00
same,"viability, T/C",[1],103%
same,"viability, T/C",[2],106%
same,"viability, T/C",[3],109%
same,"viability, T/C",[4],110%
same,"viability, T/C",[5],92.2%
same,"viability, T/C",[6],102%
same,"viability, T/C",[7],98.3%
same,"viability, T/C",[8],113%
same,"viability, T/C",[9],102%
same,"viability, T/C",[10],93.7%
same,"viability, T/C",[11],110%
same,"viability, T/C",[12],98.6%
same,"viability, T/C",[13],102%
same,"viability, T/C",[14],103%
same,"viability, T/C",[15],105%
same,"viability, T/C",[16],111%
same,"viability, T/C",[17],104%
same,"viability, T/C",[18],90.3%
same,"viability, T/C",[19],96%
same,"viability, T/C",[20],99.2%
same,"viability, T/C",[21],93.5%
same,"viability, T/C",[22],97.5%
same,"viability, T/C",[23],79.3%
same,"viability, T/C",[24],72%
same,"viability, T/C",[25],97.8%
same,"viability, T/C",[26],92.1%
same,"viability, T/C",[27],98.8%
same,"viability, T/C",[28],93.9%
same,"viability, T/C",[29],86.1%
same,"viability, T/C",[30],86.8%
same,"viability, T/C",[31],82.2%
same,"viability, T/C",[32],75.9%
same,"viability, T/C",[33],80.2%
same,"viability, T/C",[34],85.8%
same,"viability, T/C",[35],70.6%
same,"viability, T/C",[36],57.5%
CC1(C)CCC(Nc2ncc(C(F)(F)F)c(-c3c[nH]c4c(P(C)(C)=O)c(C#N)ccc34)n2)CN1 (stereo not given) + CC(Nc1ccc2c(c1)OCCn1cc(N3C(=O)OCC3C(F)F)nc1-2)C(N)=O,pIC50,second compound 0.00316 µM,5.37
same,pIC50,second compound 0.01 µM,5.36
same,pIC50,second compound 0.0316 µM,5.40
same,pIC50,second compound 0.1 µM,5.45
same,pIC50,second compound 0.316 µM,5.44
same,pIC50,second compound 1 µM,5.69
same,"viability, T/C",[1],72.1%
same,"viability, T/C",[2],78.7%
same,"viability, T/C",[3],76.4%
same,"viability, T/C",[4],72.6%
same,"viability, T/C",[5],66.1%
same,"viability, T/C",[6],3.82%
same,"viability, T/C",[7],84.2%
same,"viability, T/C",[8],79.8%
same,"viability, T/C",[9],75%
same,"viability, T/C",[10],77.9%
same,"viability, T/C",[11],67.8%
same,"viability, T/C",[12],4.66%
same,"viability, T/C",[13],78.7%
same,"viability, T/C",[14],69.8%
same,"viability, T/C",[15],70.8%
same,"viability, T/C",[16],67.1%
same,"viability, T/C",[17],62.2%
same,"viability, T/C",[18],3.26%
same,"viability, T/C",[19],84.2%
same,"viability, T/C",[20],72.3%
same,"viability, T/C",[21],64.9%
same,"viability, T/C",[22],69.5%
same,"viability, T/C",[23],57%
same,"viability, T/C",[24],3.49%
same,"viability, T/C",[25],66.6%
same,"viability, T/C",[26],64.2%
same,"viability, T/C",[27],61.1%
same,"viability, T/C",[28],68.4%
same,"viability, T/C",[29],55.5%
same,"viability, T/C",[30],3.54%
same,"viability, T/C",[31],64.5%
same,"viability, T/C",[32],52.5%
same,"viability, T/C",[33],56.4%
same,"viability, T/C",[34],56.7%
same,"viability, T/C",[35],46.2%
same,"viability, T/C",[36],3.28%
Cn1nccc1Nc1nccc(-c2ccn(C(CO)c3ccc(Cl)c(F)c3)c(=O)c2)n1 (stereo not given) + CC(Nc1ccc2c(c1)OCCn1cc(N3C(=O)OCC3C(F)F)nc1-2)C(N)=O,pIC50,second compound 0.00316 µM,5.06
same,pIC50,second compound 0.01 µM,5.11
same,pIC50,second compound 0.0316 µM,5.22
same,pIC50,second compound 0.1 µM,5.51
same,pIC50,second compound 0.316 µM,5.64
same,pIC50,second compound 1 µM,5.96
same,"viability, T/C",[1],103%
same,"viability, T/C",[2],96.7%
same,"viability, T/C",[3],92.7%
same,"viability, T/C",[4],88.8%
same,"viability, T/C",[5],76.6%
same,"viability, T/C",[6],45.6%
same,"viability, T/C",[7],120%
same,"viability, T/C",[8],105%
same,"viability, T/C",[9],93.9%
same,"viability, T/C",[10],84.1%
same,"viability, T/C",[11],76.5%
same,"viability, T/C",[12],41.4%
same,"viability, T/C",[13],106%
same,"viability, T/C",[14],93%
same,"viability, T/C",[15],85.8%
same,"viability, T/C",[16],82.5%
same,"viability, T/C",[17],70.6%
same,"viability, T/C",[18],36%
same,"viability, T/C",[19],97.6%
same,"viability, T/C",[20],97.8%
same,"viability, T/C",[21],89.3%
same,"viability, T/C",[22],71.9%
same,"viability, T/C",[23],50.5%
same,"viability, T/C",[24],25.5%
same,"viability, T/C",[25],95.3%
same,"viability, T/C",[26],86.5%
same,"viability, T/C",[27],77.8%
same,"viability, T/C",[28],72.9%
same,"viability, T/C",[29],40.7%
same,"viability, T/C",[30],13.2%
same,"viability, T/C",[31],69.8%
same,"viability, T/C",[32],83.3%
same,"viability, T/C",[33],70%
same,"viability, T/C",[34],52.1%
same,"viability, T/C",[35],22.8%
same,"viability, T/C",[36],9.78%
